Test results as given in patent US20250009834A1, “COMPOSITION OF BEVERAGE CONCENTRATE CONTAINING CITRIC ACID AND NATURAL ANTIOXIDANT” (priority 2021, published 2025).

Assay: CaOx aggregation inhibition (aggregation coefficient of seed COM crystals)
Conditions: 200 μL sample added to 2 mL seed COM suspension, 37° C., 10 min; embodiment 100% concentration; BSA 1 mg/mL; citric acid positive control
Description: In the following in-vitro trials, all “%” marks represented percentages by weight. An embodiment of “100%” concentration was prepared by mixing 60 mL of a beverage concentrate of an exemplary composition (see Table 1 above) with 440 mL of distilled water, equivalent to a ratio of 0.136 parts of the exemplary composition to one part of water. An embodiment of a concentration lower than 100% was prepared by further diluting said embodiment of 100% concentration with distilled water by a conventionally known dilution means that is appropriate for food and beverages. All the mixtures concerned were conventionally mixed to achieve effective uniformity for food and beverages.
Seed calcium oxalate monohydrate (COM) crystals were prepared and diluted to 50 mg/mL in 0.05 M Tris/0.15 NaCl, pH 6.5. An embodiment having the 100% concentration, or bovine serum albumin (BSA) or distilled water (blank) (200 μL) was added to the freshly prepared working seed COM suspension (2 mL). After mixing, absorbance at 620 nm was measured as baseline (AT0). After incubating at 37° C. for 10 min. absorbance was measured again (AT10). The aggregation coefficient (AC) was calculated from: AC=((AT0−AT10)/10)×1,000. Higher AC value indicates higher COM aggregation.

Compound | aggregation of seed COM crystals
O=C(O)CC(O)(CC(=O)O)C(=O)O [Citric acid] | strongly inhibited
bovine serum albumin [BSA] | did not
